# Reference: publication PMC11054282, “Structural Investigations on 2-Amidobenzimidazole Derivatives as New Inhibitors of Protein Kinase CK1 Delta” (Pharmaceuticals, 2024)
# Values joined by “and” are separate entries in the source; they are usually repeats but may differ in a detail not shown here. Equal values may be shown once.
# Legend:
# truncated CK1δ = target: T1, truncated CK1δ (Homo sapiens, UniProt P48730); assay: CK1δ luminescent kinase assay (Kinase Glo kit); type: biochemical; conditions: for IC50: truncated recombinant human CK1δ (aa 1-294), casein substrate, 2 μM ATP, mean ± SE of three independent experiments in duplicate
# T1 construct: truncated CK1δ, recombinant human, GST-tagged, aa 1-294, Merck Millipore; GST; purchased Merck Millipore, Merck KGaA, Darmstadt, Germany
# T1 sequence (P48730 1-294): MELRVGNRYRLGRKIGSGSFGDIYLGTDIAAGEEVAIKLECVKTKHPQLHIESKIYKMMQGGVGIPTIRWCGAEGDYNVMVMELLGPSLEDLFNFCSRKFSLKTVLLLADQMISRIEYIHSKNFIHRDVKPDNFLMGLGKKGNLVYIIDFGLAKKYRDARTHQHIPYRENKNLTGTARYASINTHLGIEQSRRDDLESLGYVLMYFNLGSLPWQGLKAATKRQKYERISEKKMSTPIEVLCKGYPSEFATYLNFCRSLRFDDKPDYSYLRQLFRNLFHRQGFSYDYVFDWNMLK
# Procedure: The newly synthesized derivatives 1–32 were tested on truncated CK1δ using the luminescent kinase assay Kinase Glo® KIT (Promega Italy S.r.l., Milan, Italy), and the results are reported in Table 1 and Table 2. Derivatives were tested at a fixed dose of 40 μM; then, those showing a residual kinase activity percentage lower than 50% were tested at 10 μM.
# The inhibitory activity of synthesized compounds on CK1δ has been carried out following a procedure for a luminescence-based assay (KinaseGlo® kit, Promega Italy Srl, Milan, Italy) already reported in the literature. Luminescent assays were performed in white 96-well plates in a 40 μL final volume. The buffer used is a milliq water solution of 50 mM HEPES (pH 7.5), 1 mM EDTA, 1 mM EGTA, and 15 mM MgCl2. In a typical assay, 10 μL of inhibitor solution (desired concentrations were obtained by diluting in buffer a starting 10 mM solution in DMSO) and 10 μL of enzyme solution (truncated CK1δ, recombinant human, GST-tagged, aa 1-294, Merck Millipore, Merck KGaA, Darmstadt, Germany) were added to the well, followed by 20 μL of assay buffer containing casein substrate (casein solution from bovine milk, 5% in water, Sigma-Aldrich, Merck KGaA, Darmstadt, Germany) and ATP, at a final concentration of 0.05% and 2 μM, respectively. The final enzyme concentration was 6.5 nM. […] After 60 min of incubation at 30 °C, the enzymatic reactions were stopped with the addition of 40 μL of KinaseGlo reagent (Promega Italy Srl, Milan, Italy). The luminescence signal (relative light unit, RLU) was recorded after 10 min at 25 °C using a Tecan Infinite M100. […] IC50 values were evaluated using ten different inhibitor concentrations ranging from 100 to 0.026 μM. Data were analyzed using Excel and GraphPad Prism software (version 8.0).
# CK1δ = conditions: compound IV (SR 2890), Figure 1; read-out: CK1δ IC50; cited from earlier work
Compound,melting point,fold less potent than the regioisomer 18 (CK1δ) (truncated CK1δ; 19 (4-NO2) versus 18 (5-NO2)),IC50 (truncated CK1δ),IC50 (CK1δ)
Fc1cccc(-n2cnc3c(NCc4nc5ccc(Cl)cc5[nH]4)nc(N4CCNCC4)nc32)c1 [IV],–,–,–,0.005 µM
"COc1ccccc1C(=O)Cn1ccc(C(=O)Nc2nc3ccccc3[nH]2)n1 [Compound 4, N-(1H-Benzimidazol-2yl)-1-(2-(2-methoxyphenyl)-2-oxoethyl)-1H-pyrazole-3-carboxamide]",168 to 170 °C,–,> 40 µM,–
"COc1ccccc1C(=O)Cn1ccc(C(=O)Nc2nc3cc(Cl)ccc3[nH]2)n1 [Compound 6, N-(5(6)-Chloro-1H-benzimidazol-2yl)-1-(2-(2-methoxyphenyl)-2-oxoethyl)-1H-pyrazole-3-carboxamide]",219 to 221 °C,–,< 15 µM and 13.2 µM,–
"O=C(Nc1nc2cc([N+](=O)[O-])ccc2[nH]1)c1cc[nH]n1 [Compound 12, N-(5(6)-Nitro-1H-benzimidazol-2-yl)-1H-pyrazole-3(5)-carboxamide]",> 300 °C,–,> 40 µM,–
"COc1ccc2[nH]c(NC(=O)c3cc[nH]n3)nc2c1 [Compound 11, N-(5(6)-Methoxy-1H-benzimidazol-2-yl)-1H-pyrazole-3(5)-carboxamide]",> 300 °C,–,> 40 µM,–
"O=C(Cc1cc[nH]n1)Nc1nc2ccccc2[nH]1 [Compound 13, N-(1H-benzimidazol-2-yl)-2-(1H-pyrazol-3(5)-yl)acetamide]",295 to 297 °C,–,4.21 ± 1.92 µM,–
"Cc1ccc2[nH]c(NC(=O)c3cc[nH]n3)nc2c1 [Compound 8, N-(5(6)-Methyl-1H-benzimidazol-2-yl)-1H-pyrazole-3(5)-carboxamide]",> 300 °C,–,> 40 µM,–
"Cc1ccc2[nH]c(NC(=O)Cc3cc[nH]n3)nc2c1 [Compound 14, N-(5(6)-Methyl-1H-benzimidazol-2-yl)-2-(1H-pyrazol-3(5)-yl)acetamide]",257 °C (dec.),–,1.64 ± 0.31 µM,–
"O=C(Nc1nc2cc(C(F)(F)F)ccc2[nH]1)c1cc[nH]n1 [Compound 10, 1H-Pyrazole-N-(5(6)-trifluoromethyl-1H-benzimidazol-2-yl)-3(5)-carboxamide]",> 300 °C,–,> 40 µM,–
"Cc1ccc2[nH]c(NC(=O)c3ccn(CC(=O)c4ccccc4)n3)nc2c1 [Compound 2, N-(5(6)-Methyl-1H-benzimidazol-2yl)-1-(2-oxo-2-phenylethyl)-1H-pyrazole-3-carboxamide]",199 to 200 °C,–,< 15 µM and 14.6 µM,–
"O=C(Nc1nc2cc(Cl)ccc2[nH]1)c1cc[nH]n1 [Compound 9, N-(5(6)-Chloro-1H-benzimidazol-2-yl)-1H-pyrazole-3(5)-carboxamide]",> 300 °C,–,> 40 µM,–
"O=C(Cn1ccc(C(=O)Nc2nc3ccccc3[nH]2)n1)c1ccccc1 [Compound 1, N-(1H-Benzimidazol-2yl)-1-(2-oxo-2-phenylethyl)-1H-pyrazole-3-carboxamide]",220 to 221 °C,–,> 40 µM,–
"O=C(Nc1nc2ccccc2[nH]1)c1cc[nH]n1 [Compound 7, N-(1H-Benzimidazol-2-yl)-1H-pyrazole-3(5)-carboxamide]",> 300 °C,–,> 40 µM,–
"COc1ccccc1C(=O)Cn1ccc(C(=O)Nc2nc3cc(C)ccc3[nH]2)n1 [Compound 5, N-(5(6)-Methyl-1H-benzimidazol-2yl)-1-(2-(2-methoxyphenyl)-2-oxoethyl)-1H-pyrazole-3-carboxamide]",201 to 203 °C,–,> 40 µM,–
"O=C(Cn1ccc(C(=O)Nc2nc3cc(Cl)ccc3[nH]2)n1)c1ccccc1 [Compound 3, N-(5(6)-Chloro-1H-benzimidazol-2yl)-1-(2-oxo-2-phenylethyl)-1H-pyrazole-3-carboxamide]",200 to 203 °C,–,< 15 µM and 1.8 µM,–

# Continued, in another order:
melting point,fold less potent than the regioisomer 18 (CK1δ) (truncated CK1δ; 19 (4-NO2) versus 18 (5-NO2)),IC50 (truncated CK1δ),Compound,IC50 (CK1δ)
280 to 282 °C,10 fold,1.22 ± 0.23 µM,"O=C(Cc1cc[nH]n1)Nc1nc2c([N+](=O)[O-])cccc2[nH]1 [Compound 19, N-(4(7)-Nitro-1H-benzimidazol-2-yl)(1H-pyrazol-3(5)-yl)-2-acetamide]",–
239 to 240 °C,–,6.27 ± 0.95 µM,"COc1ccc2[nH]c(NC(=O)Cc3cc[nH]n3)nc2c1 [Compound 17, N-(5(6)-Methoxy-1H-benzimidazol-2-yl)-2-(1H-pyrazol-3(5)-yl)acetamide]",–
275 to 277 °C,–,1.74 ± 0.32 µM,"O=C(Cc1cc[nH]n1)Nc1nc2cc(C(F)(F)F)ccc2[nH]1 [Compound 16, 2-(1H-Pyrazol-3(5)-yl)-N-(5(6)-trifluoromethyl-1H-benzimidazol-2-yl)acetamide]",–
–,–,1 ± 0.18 µM,"CC(C)(C)c1ccc2[nH]c(NC(=O)Cc3cc[nH]n3)nc2c1 [Compound 20, N-(5(6)-terButyl-1H-benzimidazol-2-yl)(1H-pyrazol-3(5)-yl)-2-acetamide]",–
267 to 268 °C,–,0.0986 ± 0.0394 µM,"N#Cc1ccc2[nH]c(NC(=O)Cc3cc[nH]n3)nc2c1 [Compound 23, N-(5(6)-Cyano-1H-benzimidazol-2-yl)(1H-pyrazol-(3)5-yl)-2-acetamide]",–
> 300 °C,–,0.98 ± 0.35 µM,"O=C(Cc1cc[nH]n1)Nc1nc2cc(Cl)c(Cl)cc2[nH]1 [Compound 22, N-(5,6-Dichloro-1H-benzimidazol-2-yl)-2-(1H-pyrazol-3(5)-yl)acetamide]",–
–,–,20.1 ± 7.3 µM,"Cn1c(NC(=O)Cc2cc[nH]n2)nc2ccc(Cl)cc21 [Compound 32, N-(6-Chloro-1-methyl-benzimidazol-2-yl)(1H-pyrazol-3(5)-yl)acetamide]",–
–,–,> 40 µM,"CC(=O)Nc1ccc2[nH]c(NC(=O)Cc3cc[nH]n3)nc2c1 [Compound 27, N-(5(6)-Acetamido-1H-benzimidazol-2-yl)(1H-pyrazol-3(5)-yl)acetamide]",–
292 to 293 °C,–,> 40 µM,"O=C(Cc1cc[nH]n1)Nc1nc2cc(NC(=O)c3ccccc3)ccc2[nH]1 [Compound 28, N-(2-(2-(1H-Pyrazol-3-yl)acetamido)-1H-benzimidazol-3(5)-yl)benzamide]",–
286 to 288 °C,–,0.485 ± 0.31 µM,"O=C(Cc1cc[nH]n1)Nc1nc2cc(Cl)ccc2[nH]1 [Compound 15, N-(5(6)-Cloro-1H-benzimidazol-2-yl)-2-(1H-pyrazol-3(5)-yl)acetamide]",–
270 to 274 °C,–,5.99 ± 0.87 µM,"O=C(Cc1cc[nH]n1)Nc1nc2cc(OC(F)(F)F)ccc2[nH]1 [Compound 21, 2-(1H-Pyrazol-3(5)-yl)-N-(5(6)-trifluoromethoxy-1H-benzimidazol-2-yl)acetamide]",–
> 300 °C,–,< 15 µM and 1.54 µM,"O=C(Cc1cc[nH]n1)Nc1nc2cc(-c3nnn[nH]3)ccc2[nH]1 [Compound 31, N-(5(6)-(1H-tetrazol-5-yl)-1H-benzimidazol-2-yl)(1H-pyrazol-3(5)-yl)acetamide]",–
238 to 240 °C,–,< 15 µM and 10.7 µM,CNS(=O)(=O)c1ccc2[nH]c(NC(=O)Cc3cc[nH]n3)nc2c1 [Compound 26],–
269 to 271 °C,–,< 15 µM and 2.59 µM,"O=C(Cc1cc[nH]n1)Nc1nc2cc(-n3cncn3)ccc2[nH]1 [Compound 30, N-(5(6)-(1H-1,2,4-triazol-1-yl)-1H-benzimidazol-2-yl)(1H-pyrazol-3(5)-yl)acetamide]",–
272 to 274 °C,–,0.12 ± 0.083 µM,"O=C(Cc1cc[nH]n1)Nc1nc2cc([N+](=O)[O-])ccc2[nH]1 [Compound 18, N-(5(6)-Nitro-1H-benzimidazol-2-yl)(1H-pyrazol-3(5)-yl)-2-acetamide]",–
290 to 292 °C,–,2.53 ± 0.38 µM,NC(=O)c1ccc2[nH]c(NC(=O)Cc3cc[nH]n3)nc2c1 [Compound 24],–
280 °C (dec.),–,> 40 µM,"O=C(Cc1cc[nH]n1)Nc1nc2c(NC(=O)c3ccccc3)cccc2[nH]1 [Compound 29, N-(2-(2-(1H-Pyrazol-3-yl)acetamido)-1H-benzimidazol-4(7)-yl)benzamide]",–
285 to 287 °C,–,> 40 µM,"NS(=O)(=O)c1ccc2[nH]c(NC(=O)Cc3cc[nH]n3)nc2c1 [Compound 25, 2-(1H-Pyrazol-3(5)-yl)-N-(5(6)-sulfamoyl-1H-benzimidazol-2-yl)acetamide]",–
